The conditions of the series: for aqueous solubility: pH 6.8.

Structures are written as SMILES. ≈ marks a conversion by molar mass, not a printed value.

The aqueous solubility is the dissolved amount per volume that the medium holds.

`COc1ccc(-c2ccc(CN(CCN(C)C)Cc3ccncc3)cc2)cc1`: the MDR1-MDCK efflux ratio amounted to 2.06; the intrinsic clearance, human liver microsomes turned out to be 31.9 mL/min/kg; the intrinsic clearance, rat liver microsomes stood at 465 mL/min/kg; the aqueous solubility is 55.8 µg/mL (≈ 149 µM).

For the compound `COc1cccc(-c2nc(-c3cccnc3)n[nH]2)c1`, the MDR1-MDCK efflux ratio came out at 0.698; the intrinsic clearance, human liver microsomes was at most 4.74 mL/min/kg; the intrinsic clearance, rat liver microsomes is 46.5 mL/min/kg; the aqueous solubility is 22.7 µg/mL (≈ 89.8 µM).

The compound `Cc1ccc(OCCCC(=O)N2CCC(n3c(=O)[nH]c4ccccc43)CC2)cc1` displayed an intrinsic clearance, human liver microsomes of 123 mL/min/kg and an intrinsic clearance, rat liver microsomes of 1540 mL/min/kg.

`N#Cc1ccccc1OCn1nnc2ccccc2c1=O` registered an aqueous solubility of 0.65 µg/mL (≈ 2.34 µM).

As for `CC(=O)N[C@H]1CC2(CCN(C(=O)COc3cc(C)c(Cl)c(C)c3)CC2)OC[C@]1(C)O`, the MDR1-MDCK efflux ratio was found to be 42.6; the intrinsic clearance, human liver microsomes was found to be 24.4 mL/min/kg; the intrinsic clearance, rat liver microsomes amounted to 166 mL/min/kg.

As for `Cn1ccc(C(=O)NCCc2cc3nc(-c4ccncc4)ccn3n2)n1`, the intrinsic clearance, human liver microsomes stood at 8.83 mL/min/kg and the intrinsic clearance, rat liver microsomes is 105 mL/min/kg.

The compound `Fc1cccc(N[C@H]2CCCN[C@H]2Cc2ccccc2)c1` registered an intrinsic clearance, human liver microsomes of 61 mL/min/kg; an intrinsic clearance, rat liver microsomes of 658 mL/min/kg; an aqueous solubility of 42.6 µg/mL (≈ 150 µM).

Consider `CN(C)c1ccc2c(c1)Sc1cc(N(C)C)ccc1N2`, for which the MDR1-MDCK efflux ratio was 6.59; the intrinsic clearance, human liver microsomes was determined as 31.8 mL/min/kg; the intrinsic clearance, rat liver microsomes was 153 mL/min/kg.

On to `FC(F)(F)COc1ccc(CN2CCc3c(cnn3-c3ccccc3)C2)nn1`, for which the MDR1-MDCK efflux ratio stood at 0.59; the intrinsic clearance, human liver microsomes was determined as 22.6 mL/min/kg; the intrinsic clearance, rat liver microsomes was found to be 79.3 mL/min/kg; the aqueous solubility came out at 52.1 µg/mL (≈ 134 µM).

As for `Cc1ccc(Cn2nccc2NC(=O)c2ccncc2)o1`, the MDR1-MDCK efflux ratio turned out to be 2.28; the intrinsic clearance, human liver microsomes was 7.52 mL/min/kg; the intrinsic clearance, rat liver microsomes amounted to 214 mL/min/kg; the aqueous solubility came out at 33.6 µg/mL (≈ 119 µM).

As to `CC(C)c1noc2nc(C3CC3)cc(C(=O)N3CCN(C)C(=O)C3)c12`, the MDR1-MDCK efflux ratio came to 40.6; the intrinsic clearance, human liver microsomes amounted to 7.73 mL/min/kg; the intrinsic clearance, rat liver microsomes was 20.8 mL/min/kg; the aqueous solubility turned out to be 36.1 µg/mL (≈ 106 µM).

`CO[C@H]1[C@H](C2(C)O[C@@H]2CC=C(C)C)[C@]2(CC[C@H]1OC(=O)/C=C/c1ccc(OCCN(C)C)cc1)CO2` (some centres not stated) had an intrinsic clearance, human liver microsomes of 210 mL/min/kg and an intrinsic clearance, rat liver microsomes of 795 mL/min/kg.

As for `COc1ccc(C(=O)C2CCN(CC(=O)N(Cc3nc4c(c(=O)[nH]3)COCC4)CC3CC3)CC2)cc1`, the MDR1-MDCK efflux ratio was found to be 53.8; the intrinsic clearance, human liver microsomes was 10.9 mL/min/kg; the intrinsic clearance, rat liver microsomes was found to be 45.5 mL/min/kg; the aqueous solubility came out at 94.5 µg/mL (≈ 191 µM).

In turn, `O=C(NCCN1CCc2ccccc2C1=O)c1ccncc1` showed an intrinsic clearance, human liver microsomes of 13.6 mL/min/kg and an intrinsic clearance, rat liver microsomes of 240 mL/min/kg.

Take `O=C(c1ccc(-c2ccncc2)cc1)N1CCC(O)(CN2CCCC2)CC1`: the MDR1-MDCK efflux ratio came out at 17.7; the intrinsic clearance, human liver microsomes is at most 4.74 mL/min/kg; the intrinsic clearance, rat liver microsomes amounted to 76 mL/min/kg.

Consider `Cc1cc2nc(CCC(=O)N3CCc4n[nH]cc4C3)[nH]c2cc1C`, for which the MDR1-MDCK efflux ratio amounted to 24; the intrinsic clearance, human liver microsomes came to 17.4 mL/min/kg; the intrinsic clearance, rat liver microsomes stood at 190 mL/min/kg.

Consider `CCCCOc1ccccc1-c1cc(C(=O)NCCc2cccs2)[nH]n1`, for which the MDR1-MDCK efflux ratio is 0.459 and the aqueous solubility was found to be 0.37 µg/mL (≈ 1 µM).

In turn, `Cc1c(C(=O)NCC2CCSCC2)nnn1-c1cccc2cnccc12` returned an intrinsic clearance, human liver microsomes of 177 mL/min/kg and an intrinsic clearance, rat liver microsomes of 1770 mL/min/kg.

Turning to `Cc1ccc(F)cc1S(=O)(=O)Nc1ccc(C(=O)N2CCCC2)cc1`, the MDR1-MDCK efflux ratio was found to be 22.3; the intrinsic clearance, human liver microsomes is 127 mL/min/kg; the intrinsic clearance, rat liver microsomes came out at 6150 mL/min/kg.

`CCCCNC(=O)c1cccc2ncccc12`: the MDR1-MDCK efflux ratio came to 0.631; the intrinsic clearance, human liver microsomes was at most 4.74 mL/min/kg; the intrinsic clearance, rat liver microsomes came to 28 mL/min/kg; the aqueous solubility worked out at 29.3 µg/mL (≈ 128 µM).

`C=CCn1cc(CNCc2csc3ccc(Cl)cc23)c(C)n1` showed an intrinsic clearance, human liver microsomes of 347 mL/min/kg; an intrinsic clearance, rat liver microsomes of 3200 mL/min/kg; an aqueous solubility of 21.4 µg/mL (≈ 64.5 µM).

Consider `Cc1nn(C)c(C)c1NC(=O)CN1CCC2(CCCCC2)CC1`, for which the MDR1-MDCK efflux ratio turned out to be 1.6; the intrinsic clearance, human liver microsomes stood at 12.4 mL/min/kg; the intrinsic clearance, rat liver microsomes turned out to be 497 mL/min/kg; the aqueous solubility was 87.3 µg/mL (≈ 274 µM).

`Fc1cccc(Oc2nnnn2-c2ccccc2)c1` showed an aqueous solubility of 13.1 µg/mL (≈ 51 µM).

As to `CCN1CCc2ncnc(N3CCNc4ccccc4C3)c2C1`, the MDR1-MDCK efflux ratio worked out at 1.78; the intrinsic clearance, human liver microsomes is at most 4.74 mL/min/kg; the intrinsic clearance, rat liver microsomes stood at 105 mL/min/kg; the aqueous solubility was found to be 52.1 µg/mL (≈ 168 µM).

As for `CCC(=O)N(C)CC(=O)Nc1cccc(F)c1`, the MDR1-MDCK efflux ratio stood at 0.705; the intrinsic clearance, human liver microsomes is at most 4.74 mL/min/kg; the intrinsic clearance, rat liver microsomes was 12.2 mL/min/kg; the aqueous solubility is 44.8 µg/mL (≈ 188 µM).

With `CC(C)c1nc(/C=C/c2cnn(C)c2)ncc1C(=O)O`, the intrinsic clearance, human liver microsomes is at most 4.74 mL/min/kg and the intrinsic clearance, rat liver microsomes is at most 10.7 mL/min/kg.

`Cc1ccc2[nH]c(C3CCN(C)CC3)nc2c1`: the MDR1-MDCK efflux ratio is 2.88; the intrinsic clearance, human liver microsomes came out at 88.3 mL/min/kg; the intrinsic clearance, rat liver microsomes worked out at 685 mL/min/kg; the aqueous solubility amounted to 57.3 µg/mL (≈ 250 µM).

In turn, `COc1ccc(Nc2nc3ccccc3c3nncn23)cc1` yielded an aqueous solubility of 0.14 µg/mL (≈ 0.481 µM).

In the case of `COc1ccc(-c2noc([C@@H]3CCCN3Cc3ccccc3)n2)cn1`, the MDR1-MDCK efflux ratio came to 0.592; the intrinsic clearance, human liver microsomes amounted to 89.6 mL/min/kg; the intrinsic clearance, rat liver microsomes was found to be 1150 mL/min/kg; the aqueous solubility was 25.5 µg/mL (≈ 75.8 µM).

As for `CC#CCNc1ccc(-n2cnnn2)c(C)c1`, the MDR1-MDCK efflux ratio is 0.59; the intrinsic clearance, human liver microsomes was 21.1 mL/min/kg; the intrinsic clearance, rat liver microsomes stood at 131 mL/min/kg; the aqueous solubility came to 19.4 µg/mL (≈ 85.4 µM).

With `Cc1ccc(O)c(CN2CCC(c3nc4ccccc4o3)CC2)n1`, the MDR1-MDCK efflux ratio is 0.688; the intrinsic clearance, human liver microsomes was determined as 22.2 mL/min/kg; the intrinsic clearance, rat liver microsomes was found to be 229 mL/min/kg.

Turning to `O=C(c1nccc2ccccc12)N1CCC(COc2ccccn2)CC1`, the intrinsic clearance, human liver microsomes turned out to be 42.1 mL/min/kg and the intrinsic clearance, rat liver microsomes is 5410 mL/min/kg.

Regarding `CCCN(CCC1=CCCCC1)C(=O)Cc1n[nH]c(=O)[nH]1`, the MDR1-MDCK efflux ratio was 11.3; the intrinsic clearance, human liver microsomes was at most 4.74 mL/min/kg; the intrinsic clearance, rat liver microsomes came out at 1270 mL/min/kg.

`CC(C)Cc1n[nH]c(-c2ccc(N3CCN(C)CC3)cc2)n1`: the MDR1-MDCK efflux ratio came out at 3.36; the intrinsic clearance, human liver microsomes was at most 4.74 mL/min/kg; the intrinsic clearance, rat liver microsomes is 236 mL/min/kg.

For `CC(C)c1nnc(CN2CCN(c3nccs3)CC2)o1`, the MDR1-MDCK efflux ratio is 0.971; the intrinsic clearance, human liver microsomes was at most 4.74 mL/min/kg; the intrinsic clearance, rat liver microsomes came to 122 mL/min/kg; the aqueous solubility was 52.1 µg/mL (≈ 177 µM).

With `O=c1c2sccc2nc2n1CCN(Cc1cc(F)ccc1F)CC2`, the MDR1-MDCK efflux ratio came to 0.463; the intrinsic clearance, human liver microsomes stood at 121 mL/min/kg; the intrinsic clearance, rat liver microsomes was 2180 mL/min/kg.

Regarding `O=C(c1cccnc1)N1CCCC(c2cccc(-c3cccc(Cl)c3)n2)C1` (configuration not stated), the MDR1-MDCK efflux ratio came out at 0.905; the intrinsic clearance, human liver microsomes was determined as 397 mL/min/kg; the intrinsic clearance, rat liver microsomes stood at 1270 mL/min/kg; the aqueous solubility stood at 36 µg/mL (≈ 95.1 µM).

`O=C(CCc1ccc2c(c1)OCO2)Nc1nc2c(s1)CCC2`: the MDR1-MDCK efflux ratio came out at 0.236; the intrinsic clearance, human liver microsomes came to 97.4 mL/min/kg; the intrinsic clearance, rat liver microsomes was 593 mL/min/kg; the aqueous solubility worked out at 11.6 µg/mL (≈ 36.5 µM).

`Cn1cnnc1CCn1ccnc1-c1cc2ccccc2s1`: the MDR1-MDCK efflux ratio was 134; the intrinsic clearance, human liver microsomes is at most 4.74 mL/min/kg; the intrinsic clearance, rat liver microsomes was 25.3 mL/min/kg; the aqueous solubility was 33 µg/mL (≈ 106 µM).

Consider `COCC1(C(=O)N(C)Cc2ccc3ccccc3n2)CCC1`, for which the MDR1-MDCK efflux ratio turned out to be 1.14; the intrinsic clearance, human liver microsomes turned out to be 59.9 mL/min/kg; the intrinsic clearance, rat liver microsomes worked out at 4180 mL/min/kg.

For `COc1ccc(C)cc1S(=O)(=O)NCCC(=O)Nc1ccccc1C`, the MDR1-MDCK efflux ratio came out at 16.9; the intrinsic clearance, human liver microsomes stood at 92 mL/min/kg; the intrinsic clearance, rat liver microsomes was found to be 2150 mL/min/kg.

`Cc1cccc(Cl)c1-n1c(C)n[nH]c1=O` registered an aqueous solubility of 16.1 µg/mL (≈ 72.1 µM).

Turning to `Oc1cc(F)ccc1-c1nc(-c2ccncc2)no1`, the intrinsic clearance, human liver microsomes was 42.9 mL/min/kg and the intrinsic clearance, rat liver microsomes worked out at 334 mL/min/kg.

As for `CN1CCC(CNc2ccc3ncc(-c4cccc(OC(F)(F)F)c4)n3n2)CC1`, the intrinsic clearance, human liver microsomes came out at 90.9 mL/min/kg and the intrinsic clearance, rat liver microsomes came to 365 mL/min/kg.

As for `Cc1cccc(Oc2ncccc2N)c1C`, the MDR1-MDCK efflux ratio worked out at 0.588; the intrinsic clearance, human liver microsomes came out at 11.7 mL/min/kg; the intrinsic clearance, rat liver microsomes stood at 308 mL/min/kg; the aqueous solubility worked out at 45.3 µg/mL (≈ 212 µM).

Turning to `C[C@@H]1CN(Cc2ccccc2)C[C@H]1c1nc2c(cnn2C2CCOCC2)c(=O)[nH]1`, the MDR1-MDCK efflux ratio is 14.3; the intrinsic clearance, human liver microsomes is 36.3 mL/min/kg; the intrinsic clearance, rat liver microsomes was 321 mL/min/kg.

As to `C#Cc1cccc(N(CCC(=O)NC(N)=O)Cc2cccs2)c1`, the MDR1-MDCK efflux ratio is 1.88; the intrinsic clearance, human liver microsomes worked out at 51.4 mL/min/kg; the intrinsic clearance, rat liver microsomes is 1070 mL/min/kg.

With `CCN(Cc1nc(C)no1)C(=O)c1cc(C)c(C)n(C)c1=O`, the MDR1-MDCK efflux ratio was 82.6; the intrinsic clearance, human liver microsomes was at most 4.74 mL/min/kg; the intrinsic clearance, rat liver microsomes is at most 10.7 mL/min/kg.

For the compound `Cc1cc(C#N)cc(N2CCc3c(ncn3CCc3ccccc3)C2)n1`, the MDR1-MDCK efflux ratio worked out at 1.22; the intrinsic clearance, human liver microsomes is 975 mL/min/kg; the intrinsic clearance, rat liver microsomes came out at 3430 mL/min/kg.

(Values after the Biogen ADME set (Fang et al. 2023).)
